Key:
[1] = tested on: indomethacin-induced small intestinal injury; assay: Indomethacin-induced small intestinal injury model in rats; format: in vivo, rat; conditions: SD rats, 30 min before and 6 hr after indomethacin
Text: The suppressive effect of compound F on small intestinal injury was investigated using indomethacin-induced small intestinal injury model in rats. Administration of non-steroidal anti-inflammatory drugs (NSAIDs) is known to induce hemorrhagic injury in the small intestine of human.
Male SD rats, 7 weeks old (Charles River) were purchased, acclimated for 1 week and used for the study. The rats were grouped based on the body weight and subcutaneously administered with indomethacin (SIGMA, Lot No. 19F0018) at 15 mg/5 mL/kg to all groups to induce small intestinal injury. Compound F at doses of 0.01, 0.1 and 1 mg/kg was orally administered at a volume of 5 mL/kg 30 min before and 6 hr after the subcutaneous administration of indomethacin. To the control group was orally administered a solvent (1 vol % ethanol solution) at 5 mL/kg in the same manner. Eight animals were used for each group.
The rats were intravenously administered with 2 mL of 10 mg/mL Evans blue solution under ether anesthesia 23.5 hr after the indomethacin administration. After 30 min, the rats were bled to death from the abdominal aorta and caudal vena cava under ether anesthesia and the small intestine was isolated. […] The length and width of each ulcer were measured under a stereomicroscope, the area was calculated, and the sum thereof was taken as the total ulcer area.

[2] = In vitro metabolic stability: NADPH-independent β oxidation reaction in rat liver mitochondria fraction; format: in vitro ADME; conditions: 37° C., 30 min, tested as isomer mixtures, average±SD of 3 experiments
Method: A mixture of the compound F and compound J of the present invention described in Table 1 (F:J=52:41, synthesized in Example 14), and a mixture of compounds wherein the tetrazole groups at C-1 of compound F and compound J are respectively substituted by carboxylic acid (referred to as carboxylate form, F:J=54:34, synthesized in Example 15) were tested.
First, a mitochondria fraction was prepared from the rat liver according to the following Reference A. Then, in reference to the method of […] et al. described in the following References B and C, an NADPH-independent β oxidation reaction was studied. The reaction was carried out at 37° C. for 30 min, and stopped with a methanol solution containing a suitable internal standard substance. Each compound was quantified by the internal standard method using a high performance liquid chromatography mass spectrometry apparatus (LC-MS/MS). The compound residual ratio after metabolic reaction of compounds F, J and each carboxylate form thereof in rat mitochondria fraction is shown in the following Table 2 in average±standard deviation of 3 experiments.

T cell transfer colitis = assay: CD4+CD25- T cell transfer colitis model in mice; format: in vivo, mouse; conditions: C.B-17/Icr-scid mice, oral 1 mg/kg once a day
Text: The effect on Crohn's disease, another type of inflammatory bowel disease, was studied. T cell transfer model is well known as a Crohn's disease model, which develops chronic […] or enteritis (see: References F, G, H). In addition, it can also be regarded as an animal model of intestinal Behcet's disease or simple ulcer, suffering from similar intestinal ulcer accompanied by activation of T cells (see: References I, J).
Female BALB/cA Jcl mice, 6 weeks old, body weight 19-23 g (CLEA Japan, Inc.) and female C.B-17/Icr-scid mice (6 weeks old, CLEA Japan, Inc.) were purchased, acclimated for 1 week and used for the study.
After laparotomy under ether anesthesia, BALB/cA Jcl mice were exsanguinated to death through the abdominal aorta and caudal vena cava, and the spleen was isolated. Splenocytes were prepared from the spleen and then CD4^+CD25^− T cells were prepared with a CD4^+ T cell Isolation Kit (No. 130-090-860, Milky Biotech Co., Ltd.) and CD25-Biotin antibody (No. 130-092-569, Milky Biotech Co., Ltd.). The cells were separated using the autoMACS Separator (Milky Biotech Co., Ltd.). The separated CD4^+CD25^− T cells were suspended in physiological phosphate buffer solution, and 2.5×10^5 cells per animal were intraperitoneally administered to C.B-17/Icr-scid mice to induce colitis.
One mg/kg of compound F or prednisolone was initially administered at 5 hr before transfer of CD4^+CD25^− T cells, and orally administered thereafter once a day, daily, for 20 days. To the control group was orally administered a solvent (1 vol % ethanol solution) at 10 mL/kg. A clinical endpoint was the sum of stool consistency score (0-5), fecal occult blood score (0-4) and body weight decrease score (0-5), termed as the Disease Activity Index score (hereinafter to be abbreviated as DAI score: highest score 14). The stool consistency score was graded for the hardness of stool as normal (0), slightly loose (1), somewhat loose (2), loose (3), considerably loose (4) and diarrhea (5). The fecal occult blood score was evaluated in the same manner as in Example 23. The body weight decrease score was graded for the changes in the body weight as increase (0), decrease of less than 3% (1), decrease of not less than 3% and less than 6% (2), decrease of not less than 6% and less than 9% (3), decrease of not less than 9% and less than 12% (4), and decrease of not less than 12% (5). Eight to 10 mice were used for each group and the results were expressed as average.

[3] = tested on: ethanol-induced gastric mucosal injury; assay: Ethanol-induced gastric mucosal injury model in rats; format: in vivo, rat; conditions: SD rats, 30 min before ethanol
Text: The suppressive effect of compound F on gastric mucosal injury was investigated in ethanol-induced gastric mucosal injury model in rats. This model is frequently used as an animal model of human acute gastritis associated with congestive mucosal injury (Reference K).
Male SD rats (7 weeks old, Charles River) were purchased through Oriental BioService Inc., acclimated for 1 week and used for the study. The rats were grouped based on the body weight, placed in a clean cage set with a wire mesh floor one day before the study, fasted for 19 hr (without water for last 3 hr), and orally administered with ethanol (special grade, Nacalai Tesque, Lot No. V8A5862, 1.5 mL) in all groups to induce gastric mucosal injury. Compound F was orally administered at doses of 0.01, 0.1 and 1 mg/kg 30 min before induction of gastric mucosal injury at a volume of 5 mL/kg. To the control group was orally administered a solvent (1 vol % ethanol solution) at 5 mL/kg in the same manner. Eight animals were used for each group.
The rats were bled to death from the abdominal aorta and caudal vena cava under ether anesthesia after 1 hr from the ethanol administration, and the stomach was isolated. […] The length and width of each ulcer were measured under a stereomicroscope, the area was calculated, and the sum thereof was taken as the total ulcer area.

## Cc1cccc([C@@H](C)[C@H](O)/C=C/[C@@H]2[C@@H]3[C@H](C[C@H]2O)O/C(=C\CCCc2nnn[nH]2)C3(F)F)c1 [Compound F, 4-[(Z)-(1S,5R,6R,7R)-6-[(1E,3R,4R)-3-hydroxy-4-(m-tolyl)-1-pentenyl]-7-hydroxy-2-oxa-4,4-difluoro-bicyclo[3.3.0]octan-3-ylidene]-1-(tetrazol-5-yl)butane]
[1]; oral 1 mg/kg
  Effect on total ulcer area (small intestine): completely reduced the area
[1]; oral, from 0.1 mg/kg
  Effect on total ulcer area (small intestine): significantly reduced the ulcer area in a dose-dependent manner
[2]
  Residual ratio of parent compound after β-oxidation reaction: 91.6 ± 6.8%
T cell transfer colitis
  DAI score: comprehensively superior to prednisolone
  Effect on body weight decrease score: prevented the increase in the body weight decrease score almost completely
  Effect on fecal occult blood score: suppressed the increases in both the stool consistency score and the fecal occult blood score by almost half
  Effect on stool consistency score: suppressed the increases in both the stool consistency score and the fecal occult blood score by almost half
[3]; oral 1 mg/kg
  Effect on total ulcer area (stomach): almost completely reduced the area
[3]; oral, from 0.01 mg/kg (0.01, 0.1 and 1 mg/kg)
  Effect on total ulcer area (stomach): significantly reduced the total ulcer area in a dose-dependent manner
